Results published in patent US10981858B2, “Dendrimer and formulations thereof” (Priostar Pty Ltd, priority 2015, dated 2021).

Columns and labels:
[1] = Solubilization of water insoluble surfactant Ethoxylated Lauryl alcohol-3 M in LA-9 solution; type: physicochemical; settings: for Quantity LA-3 added to LA-9 solution: 50 g, until hazy
Procedure: 5% w/w aqueous solution of Ethoxylated Lauryl alcohol-9 mole (water soluble surfactant) was prepared in Deionized water (2.5 g in 47.5 ml). Dendrimer compounds 1 and 4 were diluted 70:30 w/w in Diethylene glycol. The 5% Ethoxylated Lauryl alcohol-9 M (LA-9) solution was combined with dendrimer DEG solution at 90:10, 80:20 and 70:30 w/w (total weight 50 g).
Ethoxylated lauryl alcohol-3 mole (water insoluble surfactant) was added dropwise, while stirring, to the 50 g LA-9 solution (with or without dendrimer), until it became hazy. The weight of Ethoxylated lauryl alcohol-3 M added was recorded.

[2] = Water value of dendrimers with solvent (Solvesso 200); type: physicochemical; settings: 50 g aqueous solution, 7% dendrimer and 3% DEG; until hazy
Procedure: 50 g Aqueous solution of Dendrimer were prepared containing 7% dendrimer and 3% Diethylene glycol (DEG) by weight. Solvesso 200 (C10-13 aromatic hydrocarbon solvent) was added dropwise under stirring until the solution became hazy. Weight of Solvesso added was recorded.

OCCN(CCO)CC(O)COCC(COCC(O)CN(CCO)CCO)(COCC(O)CN(CCO)CCO)COCC(COCC(O)CN(CCO)CCO)(COCC(O)CN(CCO)CCO)COCC(O)CN(CCO)CCO (centres unmarked) [Compound 4, 9,9′-(Oxybis(methylene))bis(9-((3-(bis(2-hydroxyethyl)amino)-2-hydroxypropoxy)methyl)-3,15-bis(2-hydroxyethyl)-7,11-dioxa-3,15-diazaheptadecane-1,5,13,17-tetraol)]
Quantity LA-3 added to LA-9 solution ([1]; ratio 5% LA-9 solution:dendrimer/DEG solution 70:30 (w/w), 21% dendrimer (w/w)): 2.01 g | Quantity LA-3 added to LA-9 solution ([1]; ratio 5% LA-9 solution:dendrimer/DEG solution 80:20 (w/w), 14% dendrimer (w/w)): 2.86 g | Quantity LA-3 added to LA-9 solution ([1]; ratio 5% LA-9 solution:dendrimer/DEG solution 90:10 (w/w), 7% dendrimer (w/w)): 2.11 g | Increase in solubilisation of Ethoxylated lauryl alcohol-3 M ([1]; over LA-9 without dendrimer): 72% | Quantity Solvesso 200 added [2]: 2.15 g
